In brackets after ≈: the same amount, converted by molar mass.
tested on: CCRF-CEM cells; assay: growth inhibition / cytotoxicity against CCRF-CEM human leukemia cells in vitro; assay type: cell-based; conditions: serum-free UltraCHO media, 72 hours incubation, read-out: IC50 (concentration required for 50% inhibition of growth), CCRF-CEM
Description: The in vitro data were obtained using CCRF-CEM cells, a human leukemia cell line. Foley et al., Cancer, 18:522 (1965). These cells were grown in albumin-free UltraCHO® media (BioWhittaker, Inc., Walkersville, Md.) using standard techniques. See, e.g., G. B. Grindey, et al., Journal of Molecular Pharmacology, 16:601 (1979). Dose-response curves were generated for various compounds to determine the concentration required for 50% inhibition of growth (IC50). Cluster plates were prepared in duplicate with the compound at various concentrations. Test compounds were dissolved initially in DMSO at a concentration of 4 mg/ml and further diluted with solvent to the desired concentration. Cells in serum-free UltraCHO media were added to the well at a final concentration of 4.8×10^4 cells/well in a total volume of 2.0 ml. After 72 hours of incubation (95% air, 5% CO2), cell numbers were determined on a ZBI Coulter counter. Cell number for indicated controls at the end of incubation was usually (4-6)×10^5 cells/well. Cell viability was also measured by staining with 3-[4,5-dimethylthiazol-2-yl]-2,5-diphenyl-tetrazolium bromide (MTT) using standard techniques. R. I. Freshney, Culture of Animal Cells: A Manual of Basic Technique, 253-254 (2d ed. 1987).
Column 1 refers to the example number of the compound tested; Column 2 depicts the in vitro cytoxicity against CCRF-CEM cells by relating the concentration of the test compound required for 50% inhibition of growth (IC50) of the cells in the well. The designation "CSQ" refers to the compound 4-amino-N-(5-chloro-2-quinoxalinyl)benzenesulfonamide and is used as a comparator.

SMILES | IC50 [µg/mL]
Nc1ccc(S(=O)(=O)Nc2cnc3c(Cl)cccc3n2)cc1 [CSQ, 4-amino-N-(5-chloro-2-quinoxalinyl)benzenesulfonamide, reference compound] | 0.8 (≈ 2.39 µM)
CN(C)c1ccc(S(=O)(=O)Nc2cnc3cc(Cl)c(Cl)cc3n2)cc1 [Example 1, 4-N',N'-dimethylamino-N-(6,7-dichloro-2-quinoxalinyl)benzenesulfonamide] | 0.8 (≈ 2.01 µM)
CN(C)c1ccc(S(=O)(=O)Nc2cnc3c(Cl)cccc3n2)cc1 [Example 2, 4-N',N'-dimethylamino-N-(5-chloro-2-quinoxalinyl)benzenesulfonamide] | 0.1 (≈ 0.276 µM)
CN1CCc2cc(S(=O)(=O)Nc3cnc4c(Cl)cccc4n3)ccc21 [Example 3, N-(5-chloro-2-quinoxalinyl)-2,3-dihydro-1-methyl-1H-indole-5-sulfonamide] | 0.3 (≈ 0.8 µM)
O=S(=O)(Nc1cnc2c(Cl)cccc2n1)c1ccc2c(c1)CCO2 [Example 4, N-(5-chloro-2-quinoxalinyl)-2,3-dihydrobenzofuran-5-sulfonamide] | 0.3 (≈ 0.829 µM)
O=S(=O)(Nc1cnc2c(Cl)cccc2n1)c1ccc2occc2c1 [Example 5, N-(5-chloro-2-quinoxalinyl)benzofuran-5-sulfonamide] | 0.2 (≈ 0.556 µM)
Cn1ccc2cc(S(=O)(=O)Nc3cnc4c(Cl)cccc4n3)ccc21 [Example 6, N-(5-chloro-2-quinoxalinyl)-1-methyl-1H-indole-5-sulfonamide] | 0.4 (≈ 1.07 µM)
CN(C)c1ccc(S(=O)(=O)Nc2cnc3cc(Cl)ccc3n2)cc1 [Example 7, 4-N',N'-dimethylamino-N-(6-chloro-2-quinoxalinyl)benzenesulfonamide] | 1.2 (≈ 3.31 µM)
CN1CCc2cc(S(=O)(=O)Nc3cnc4cc(Cl)ccc4n3)ccc21 [Example 8, N-(6-chloro-2-quinoxalinyl)-2,3-dihydro-1-methyl-1H-indole-5-sulfonamide] | 1.5 (≈ 4 µM)
CN(C)c1ccc(S(=O)(=O)Nc2cnc3ccc(Cl)cc3n2)cc1 [Example 9, 4-(N',N'-dimethylamino)-N-(7-chloro-2-quinoxalinyl)benzenesulfonamide] | 10.4 (≈ 28.7 µM)
CN1CCc2cc(S(=O)(=O)Nc3cnc4ccc(Cl)cc4n3)ccc21 [Example 10, N-(7-chloro-2-quinoxalinyl)-2,3-dihydro-1-methyl-1H-indole-5-sulfonamide] | 10.8 (≈ 28.8 µM)
CN(C)c1ccc(S(=O)(=O)Nc2cnc3cccc(Cl)c3n2)cc1 [Example 11, 4-N',N'-dimethylamino-N-(8-chloro-2-quinoxalinyl)benzenesulfonamide] | 15.1 (≈ 41.6 µM)
CN(C)c1ccc(S(=O)(=O)Nc2cnc3c(Cl)c(Cl)ccc3n2)cc1 [Example 12, 4-N',N'-dimethylamino-N-(5,6-dichloro-2-quinoxalinyl)benzenesulfonamide] | 7.2 (≈ 18.1 µM)
O=S(=O)(Nc1cnc2c(Cl)c(Cl)ccc2n1)c1ccc2c(c1)CCO2 [Example 13, N-(5,6-dichloro-2-quinoxalinyl)-2,3-dihydrobenzofuran-5-sulfonamide] | 6 (≈ 15.1 µM)
CN(C)c1ccc(S(=O)(=O)Nc2cnc3ccc(Cl)c(Cl)c3n2)cc1 [Example 14, 4-N',N'-dimethylamino-N-(7,8-dichloro-2-quinoxalinyl)benzenesulfonamide] | 4.6 (≈ 11.6 µM)
O=S(=O)(Nc1cnc2ccc(Cl)c(Cl)c2n1)c1ccc2c(c1)CCO2 [Example 15, N-(7,8-dichloro-2-quinoxalinyl)-2,3-dihydrobenzofuran-5-sulfonamide] | 10.8 (≈ 27.3 µM)
